Series [1] relates to Bacillus subtilis CMCC 63501. The series is described as follows: microbe, parasite or virus in culture. It counts as cell-based. How it is done:
(§1) The antimicrobial activity of FM-CATH was measured using two-fold dilution method as reported previously by us ([Ye et al., 2020]). Microorganisms bought from Guangdong Institute of Microbiology were cultured in Muller-Hinton (MH) broth at 37°C to exponential phase and subsequently diluted with fresh MH broth to reach 10^6 CFU/ml of density. An equal volume of microbial inoculums in 96-well plates was incubated with different concentrations of FM-CATH at 37°C for 14 h. The absorbance at 600 nm was measured by a microplate spectrophotometer (Infinite M1000 Pro, Tecan Company, Switzerland) to calculate the minimal inhibitory concentration (MIC) values. […] Ampicillin and polymyxin B were used as positive controls.

Series [2] relates to Candida albicans ATCC 10231. The series is described as follows: microbe, parasite or virus in culture. It is filed as cell-based. How it is done:
as §1

Series [3] relates to Propionibacterium acnes ATCC 6919. In words: microbe, parasite or virus in culture. It is filed as cell-based. How it is done:
as §1

The subject of series [4] is Pseudomonas aeruginosa ATCC 27853. The series is described as follows: microbe, parasite or virus in culture. It is filed as cell-based. How it is done:
as §1

The test system of series [5] is Escherichia coli ATCC 25922. It is filed as cell-based. Conditions: ATCC 25922, 14 h. As to the method:
The antimicrobial activity of FM-CATH was measured using two-fold dilution method as reported previously by us ([Ye et al., 2020]). Microorganisms bought from Guangdong Institute of Microbiology were cultured in Muller-Hinton (MH) broth at 37°C to exponential phase and subsequently diluted with fresh MH broth to reach 10^6 CFU/ml of density. An equal volume of microbial inoculums in 96-well plates was incubated with different concentrations of FM-CATH at 37°C for 14 h. The absorbance at 600 nm was measured by a microplate spectrophotometer (Infinite M1000 Pro, Tecan Company, Switzerland) to calculate the minimal inhibitory concentration (MIC) values.

Another series has as its system A549. The series is described as follows: Cytotoxicity by MTT. It is filed as cell-based. The note with it: A549, 24 h, 2.5-40 μM tested, n = 3; read-out: IC50 (proliferation, MTT).
Another series deals with HepG2. In words: Cytotoxicity by MTT. Conditions: HepG2, 24 h, 2.5-40 μM tested, n = 3; read-out: IC50 (proliferation, MTT). It is filed as cell-based.
The subject of the next series is MDCK. In words: Cytotoxicity by MTT. It is filed as cell-based. The note with it: 24 h, 2.5-40 μM tested, n = 3, read-out: IC50 (proliferation, MTT).
The test system of another series is MH-S. Conditions: 24 h, 2.5-40 μM.
The subject of a further series is MDA-MB-231. The note with it: MDA-MB-231, 24 h, 2.5-40 μM.
The next series deals with mouse erythrocytes. The note with it: 40 μM, 2% mouse erythrocyte suspension in TBS, room temperature, 2 h, absorbance 540 nm.
Series [6] relates to Staphylococcus aureus ATCC 25923. In words: Antimicrobial assay (MIC, two-fold dilution). It counts as cell-based. Conditions: MH broth, 10^6 CFU/ml, 37°C, 14 h, absorbance 600 nm. As to the method:
as §1

Series [7] in a line: Isothermal titration calorimetry, binding to LPS. Further details: species or system Escherichia coli O55:B5. Conditions: ITC, 1 mM peptide titrated into 50 μM LPS, 50 mM PBS pH 7.2, 25°C, single-site model. As to the method: ITC assay was carried out to investigate the thermodynamics of interactions between peptides and LPS or LTA using MicroCal PEAQ-ITC (Malvern; United Kingdom). 50 mM of PBS (pH 7.2) was used to prepare stock solutions of peptide, LPS, and LTA. […] In LTA binding experiment, 100 μM LTA in the syringe was titrated into 280 μL of 50 μM FM-CATH in the cell with the condition described above. Instrument was operated in high feedback mode. After the heats derived from dilution were subtracted, the equilibrium disassociation constant (K D) and the enthalpy change (ΔH) were analyzed by fitting to a single-site binding model using the MicroCal Origin software. The Gibb’s free energy change (ΔG) and entropy change (ΔS) were obtained from the basic thermodynamic equations, respectively.

Where [8] appears, read: two-fold dilution, MH broth, 10^6 CFU/ml, 37°C, 14 h, absorbance 600 nm.

No end group written: not given here.

Procedure for A549: (§2) Three tumor cell lines (A549, HepG2, and MDA-MB-231) and two normal mammalian cell lines (MH-S and MDCK) were seeded in 96-well plates at a density of 5,000 cells per well. […] The supernatant was removed and DMSO was added before the absorbance at 490 nm was measured.
Procedure for HepG2: as §2
Procedure for MDA-MB-231: as §2
Procedure for MDCK: as §2
Procedure for MH-S: as §2
Procedure for mouse erythrocytes: Hemolytic assay was carried out with fresh blood from mouse heart as reported in our previous article with minor modification ([Chai et al., 2021]). […] 1% Triton X-100 and PBS were applied as the positive and negative control, respectively. The absorbance of the supernatant at 540 nm was measured with a microplate spectrophotometer. The hemolysis rate was calculated using the following formula: percentage hemolysis = (ODsample—ODPBS)/(ODTriton—ODPBS) × 100%.

Regarding `CC1(C)S[C@@H]2[C@H](NC(=O)[C@H](N)c3ccccc3)C(=O)N2[C@H]1C(=O)O` [Ampicillin], the MIC in series [1] (Bacillus subtilis, CMCC63501, 14 h) was over 100 µM; in [2] (Candida albicans, ATCC10231, 14 h), over 100 µM; in [3] (Cutibacterium acnes, ATCC6919, 14 h) it was over 100 µM; in [4] (Pseudomonas aeruginosa, ATCC27853, 14 h), over 100 µM.

As to LKTKALNKLKQKLQAVGNLIGSVIKG [FM-CATH], the MIC was 12.5 µM in [1] (CMCC 63501, 14 h); 6.25 µM in series [2] (ATCC 10231, 14 h); 6.25 µM in [3] (ATCC 6919, 14 h); 50 µM in series [4] (ATCC 27853, 14 h); 6.25 µM in series [5]. Moreover, the IC50 in the series on A549 was 11.7 µM; in the series on HepG2, 33.4 µM; in the series with MDCK, 337 µM. The “cytotoxicity (MTT)” value in the series on MH-S and in the series on MDA-MB-231 was “very low cytotoxicity” in each case. In addition, in the series with mouse erythrocytes, the hemolytic activity entry was “almost no hemolytic activity”.

Take Polymyxin B: the MIC in series [1] (setting [8]) was 25 µM; in series [2] (setting [8]) it was 25 µM; in series [3] (setting [8]), 6.25 µM; in [4] (setting [8]), 50 µM; in [6] it was over 100 µM. The compound further registered a Kd in series [7] of 0.414 µM. Also, the “∆H” value in series [7] stood at 5.9 ± 0.156 kcal/mol.

Values taken from article PMC8415707 (Frontiers in Pharmacology, 2021).
